Measurements published in patent US7759459B2, “Fluorescent assays for protein kinases” (Albert Einstein College of Medicine of Yeshiva University, priority 2003, dated 2010).
Numbered stars: 1 amine (or outer) side, 2 acyl side, 3 side chain; on linkers, the order of the positions; unused ones are H or OH. Square brackets hold non-standard residues; d marks the D form. Peptide text beside a SMILES is read from it. * marks the point of attachment. X2 = O=C(O)CN(CC(=O)O)c1ccc(-c2c3cc(F)c(=O)cc-3oc3cc(O)c(F)cc23)cc1OCC(=O)*; X1 = O=C([C@H](CO)N(c1ccc([N+](=O)[O-])c2nonc12)[*:1])[*:2]; Acridine9carbonyl = O=C(c1c2ccccc2nc2ccccc12)*; Dansyl = CN(C)c1cccc2c(S(=O)(=O)*)cccc12; Cysteamide = C(CS[*:3])N[*:1]; Sar = CNCC(=O)O

What follows are molecules tested against T1, PKCα (Homo sapiens, UniProt P17252) (assay: Fluorescent PKC assay (spectrofluorimetry)). Settings: PKCα-catalyzed phosphorylation; spectrofluorimetry.
Assay type: biochemical
Protocol: (§1) Fluorescent PKC assay-Fluorescence assays were performed in triplicate at 30° C. and initiated by addition of ATP to a 100 μL cuvette containing a 50 μL solution of PKC and peptide substrate 2. Final conditions: 62.5 mM HEPES pH 7.4, 3 mM MgCl2, 0.3 mM CaCl2, 0.1 mM EGTA, 1 mM DTT, 0.5 μg/mL phosphatidylserine, 0.1 μg/mL diacylglycerol, 1 mM ATP, and 13 nM PKC. After the addition of ATP, the solution was gently mixed and the time-dependent change in fluorescent intensity (excitation: 520 nm, emission: […]) continuously monitored with a Photon Technology QM-1 spectrofluorimeter.

| Molecule | Fluorescence enhancement upon phosphorylation (% Change) [%] |
| --- | --- |
| N=C(N)NCCC[C@H](NC(=O)[C@H](CCCNC(=N)N)NC(=O)[C@H](CCCNC(=N)N)NC(=O)[C@H](CCCNC(=N)N)NC(=O)[C@H](Cc1ccccc1)NC(=O)[C@H](CO)NC(=O)c1c2ccccc2nc2ccccc12)C(=O)N[C@@H](CCCCN)C(N)=O (Acridine9carbonyl-SFRRRRK-NH2) | 20 |
| CN(C)c1cccc2c(S(=O)(=O)N[C@@H](CO)C(=O)N[C@@H](Cc3ccccc3)C(=O)N[C@@H](CCCNC(=N)N)C(=O)N[C@@H](CCCNC(=N)N)C(=O)N[C@@H](CCCNC(=N)N)C(=O)N[C@@H](CCCNC(=N)N)C(=O)N[C@@H](CCCCN)C(N)=O)cccc12 (Dansyl-SFRRRRK-NH2) | 20 |
| N=C(N)NCCC[C@H](NC(=O)[C@H](CCCNC(=N)N)NC(=O)[C@H](CCCNC(=N)N)NC(=O)[C@H](CCCNC(=N)N)NC(=O)[C@H](Cc1ccccc1)NC(=O)[C@H](CO)Nc1ccc([N+](=O)[O-])c2nonc12)C(=O)N[C@@H](CCCCN)C(N)=O (H-[X1]FRRRRK-NH2) | 150 |

The molecules below were run on protein kinase C (assay: Screen of fluorophore-peptide library for fluorescence change in the presence of PKC and ATP). Settings: Table 3 library.
Assay type: biochemical
Protocol: as §1
The peptide H2N-Ser-Phe-Arg-Arg-Arg-Arg-Lys-amide (1) (SEQ ID NO:2) was prepared using an Fmoc-based protocol, spatially segregated, and the free N-terminal amine subsequently modified with an array of fluorophore-containing carboxylic acids (I), aromatic aldehydes (II), and electron deficient aryl halides (III). […] This spatially segregated fluorophore-substituted peptide-based library contains a total of 415 distinct chemical entities (Table 3) and was screened for changes in fluorescence intensity in the presence of PKC and ATP under activating conditions. […] The obvious explanation is that phosphorylation of the peptide fails to induce the desired change in photophysical properties of the appended fluorophore. However, it is also possible that introduction of fluorophores, at various sites along the peptide framework, interferes with PKC-catalyzed phosphorylation. The latter possibility is unlikely, particularly for simple N-monosubstituted peptides, since PKC will phosphorylate peptides containing a wide variety of structurally diverse functionality attached at and/or near the phosphorylatable serine moiety.^24 Nevertheless, a few representative members of the library were evaluated in depth (Table 1). […]. One explanation for the poor fluorescence response of these particular peptides to PKC/ATP could be that these peptides serve as poor PKC substrates. This possibility was addressed by obtaining the PKCα-catalyzed Km and Vmax values using the [γ-^32P]ATP radioactive method.^25 As is clear from Table 1, all five peptides are reasonably effective substrates for PKCα.
Table 3. Structures of 415 compounds tested. The % change observed in fluorescence intensity upon phosphorylation of the compound by protein kinase C is shown in the right column. […] The compound labeled as compound 21 in Table 3 is the same as compound 2 in Example I, which is also shown in Scheme 2.

| Molecule | % change observed in fluorescence intensity upon phosphorylation of the compound by protein kinase C [%] |
| --- | --- |
| N=C(N)NC(NC(=O)C(NC(=N)N)NC(=O)C(NC(=N)N)NC(=O)C(NC(=N)N)NC(=O)C(NC(=O)C(O)Nc1ccc(N)cc1)c1ccccc1)C(=O)NC(N)C(N)=O (stereo not shown) [Compound 76] | <10 |
| CCCCCCCCCC(=O)NCCCCC(CNS(=O)(=O)c1cccc2c(N(C)C)cccc12)NC(O)C(=O)NC(C(=O)NC(NC(=N)N)C(=O)NC(NC(=N)N)C(=O)NC(NC(=N)N)C(=O)NC(NC(=N)N)C(=O)NC(N)C(N)=O)c1ccccc1 (stereo not shown) [Compound 82] | <10 |
| N=C(N)NC(NC(=O)C(NC(=N)N)NC(=O)C(NC(=N)N)NC(=O)C(NC(=N)N)NC(=O)C(NC(=O)C(O)/N=C/c1cc([N+](=O)[O-])cc([N+](=O)[O-])c1O)c1ccccc1)C(=O)NC(N)C(N)=O (stereo not shown) [Compound 55] | <10 |
| N=C(N)NC(NC(=O)C(NC(=N)N)NC(=O)C(NC(=N)N)NC(=O)C(NC(=N)N)NC(=O)C(NC(=O)C(O)N1C=C(c2ccccc2)C(=O)C1(O)c1ccccc1C(=O)O)c1ccccc1)C(=O)NC(N)C(N)=O (stereo not shown) [Compound 78] | <10 |
| CCCCCC(=O)NCCCCC(CNS(=O)(=O)c1cccc2c(N(C)C)cccc12)NC(O)C(=O)NC(C(=O)NC(NC(=N)N)C(=O)NC(NC(=N)N)C(=O)NC(NC(=N)N)C(=O)NC(NC(=N)N)C(=O)NC(N)C(N)=O)c1ccccc1 (stereo not shown) [Compound 81] | <10 |
| CN(C)c1cccc2c(S(=O)(=O)NC(=N)NC(O)C(=O)NC(C(=O)NC(NC(=N)N)C(=O)NC(NC(=N)N)C(=O)NC(NC(=N)N)C(=O)NC(NC(=N)N)C(=O)NC(N)C(N)=O)c3ccccc3)cccc12 (stereo not shown) [Compound 85] | <10 |
| N=C(N)NC(NC(=O)C(NC(=N)N)NC(=O)C(NC(=N)N)NC(=O)C(NC(=N)N)NC(=O)C(NC(=O)Cc1cc(=O)oc2cc(O)ccc12)NC(=O)C(O)Nc1ccc([N+](=O)[O-])c2nonc12)C(N)=O (stereo not shown) [Compound 75] | <10 |
| N#CC1=c2cc3ccccc3cc2=CC1C(=N)NC(O)C(=O)NC(C(=O)NC(NC(=N)N)C(=O)NC(NC(=N)N)C(=O)NC(NC(=N)N)C(=O)NC(NC(=N)N)C(=O)NC(N)C(N)=O)c1ccccc1 (stereo not shown) [Compound 86] | <10 |
| N=C(N)NC(NC(=O)C(NC(=N)N)NC(=O)C(NC(=N)N)NC(=O)C(NC(=N)N)NC(=O)C(NC(=O)c1ccc2c3c4c(ccc13)C=CCC4=CC2)NC(=O)C(O)Nc1ccc([N+](=O)[O-])c2nonc12)C(N)=O (stereo not shown) [Compound 73] | <10 |
| N=C(N)NC(NC(=O)C(NC(=N)N)NC(=O)C(NC(=N)N)NC(=O)C(NC(=N)N)NC(=O)C(NC(=O)C(O)N=C1N=c2c(c3ccccc3c3ccccc23)=N1)c1ccccc1)C(=O)NC(N)C(N)=O (stereo not shown) [Compound 77] | <10 |

More lines, now with the values ahead:

| % change observed in fluorescence intensity upon phosphorylation of the compound by protein kinase C [%] | Molecule |
| --- | --- |
| <10 | N#CC1=c2cc3ccccc3cc2=CC1C(CO)C(=O)NC(O)C(=O)NC(C(=O)NC(NC(=N)N)C(=O)NC(NC(=N)N)C(=O)NC(NC(=N)N)C(=O)NC(NC(=N)N)C(=O)NC(N)C(N)=O)c1ccccc1 (stereo not shown) [Compound 90] |
| <10 | COCCN(CCOC)C1=c2cc3ccccc3cc2=CC1C(CO)C(=O)NC(C(=O)NC(NC(=N)N)C(=O)NC(NC(=N)N)C(=O)NC(NC(=N)N)C(=O)NC(NC(=N)N)C(=O)NC(N)C(N)=O)c1ccccc1 (stereo not shown) [Compound 93] |
| <10 | N=C(N)NC(NC(=O)C(NC(=N)N)NC(=O)C(NC(=N)N)NC(=O)C(NC(=N)N)NC(=O)C(NC(=O)C(O)NC(=N)Nc1ccc(NOO)c2nonc12)c1ccccc1)C(=O)NC(N)C(N)=O (stereo not shown) [Compound 87] |
| <10 | N=C(N)NC(NC(=O)C(NC(=N)N)NC(=O)C(NC(=N)N)NC(=O)C(NC(=N)N)NC(=O)C(NC(=O)C(O)NC(=O)C(CO)C1C=c2cc3ccccc3cc2=C1NN)c1ccccc1)C(=O)NC(N)C(N)=O (stereo not shown) [Compound 88] |
| <10 | N=C(N)NNC1=c2cc3ccccc3cc2=CC1C(CO)C(=O)NC(C(=O)NC(NC(=N)N)C(=O)NC(NC(=N)N)C(=O)NC(NC(=N)N)C(=O)NC(NC(=N)N)C(=O)NC(N)C(N)=O)c1ccccc1 (stereo not shown) [Compound 92] |
| <10 | N=C(N)NC1=c2cc3ccccc3cc2=CC1C(CO)C(=O)NC(O)C(=O)NC(C(=O)NC(NC(=N)N)C(=O)NC(NC(=N)N)C(=O)NC(NC(=N)N)C(=O)NC(NC(=N)N)C(=O)NC(N)C(N)=O)c1ccccc1 (stereo not shown) [Compound 89] |
| <10 | N=C(N)NC(NC(=O)C(NC(=N)N)NC(=O)C(NC(=N)N)NC(=O)C(NC(=N)N)NC(=O)C(NC(=O)C(O)NC(=O)C(CO)C1C=c2cc3ccccc3cc2=C1SC(=N)N)c1ccccc1)C(=O)NC(N)C(N)=O (stereo not shown) [Compound 91] |

These molecules were tested against T1, PKCα (assay: Protein kinase C assay (Example II)). Settings: PKC-catalyzed phosphorylation.
Assay type: biochemical
Protocol: Protein kinase C assay. The kinase-catalyzed reaction was performed in triplicate at 30° C. and initiated by addition of ATP to a solution of PKCα and fluorophore-appended peptide substrate 23 (except in the case of the library, where the assays were performed in a 96 well plate using a fluorescence plate reader). Final conditions: 62.5 mM HEPES, 3 mM MgCl2, 0.3 mM CaCl2, 0.1 mM EGTA, 1 mM DTT, 0.5 μg/mL phosphatidylserine, 0.1 μg/mL diacylglycerol, 1 mM ATP, and 13 nM PKCα (pH 7.4). After the addition of ATP, the solution was gently mixed and the time-dependent change in fluorescent intensity (λexcitation=[…]; λemission=521 nm) continuously monitored with a Photon Technology QM-1 spectrofluorimeter.

| Molecule | Km [µM] | Vmax [µmol/min/mg] |
| --- | --- | --- |
| L-proline | 63 | 1.9 |
| D-proline | 23.5 | 1.0 |

Same assay, conditions: upon PKC-catalyzed phosphorylation

| Molecule | % Change Fluorescence [%] |
| --- | --- |
| L-proline | 150 |
| CN(CC(=O)N[C@@H](CO)C(=O)N[C@@H](Cc1ccccc1)C(=O)N[C@@H](CCCNC(=N)N)C(=O)N[C@@H](CCCNC(=N)N)C(=O)N[C@@H](CCCNC(=N)N)C(=O)N[C@@H](CCCNC(=N)N)C(=O)NCCS)C(=O)COc1cc(-c2c3cc(F)c(=O)cc-3oc3cc(O)c(F)cc23)ccc1N(CC(=O)O)CC(=O)O [N-Me glycine] (X2-[Sar]SFRRRR-Cysteamide) | 264 |
| CNCC(=O)O [N-methyl glycine] | 264 |
| D-proline | 156 |
